Data taken from patent EP0387661A2, “New 3'-(4-morpholinyl)- and 3'-(2-methoxy-4-morpholinyl)-anthracycline derivatives” (priority 1989, dated 1990).
Converted amounts (≈) assume the structure as drawn.

Assays:
in vivo [1] = details: mouse, in vivo, iv
Procedure: (§1) The biological activity of the compounds according to the invention was tested in vitro against LoVo (human colon adenocarcinoma) and LoVo/DX cells in comparison with doxorubicin. The compounds of the invention were also tested in vivo against P388 and P388/DX murine leukemia in comparison with doxorubicin. All compounds were tested as their hydrochlorides.

P388 = assay: in vivo; details: for %T/C (Median survival time of treated mice/median survival time of controls x 100): P388 (iv, iv+1), at optimal dose
Procedure: as §1

in vivo [2] = details: mouse, in vivo, iv; remark: listed apart in the source
Procedure: as §1

P388/DX Johnson = assay: in vivo; details: for %T/C (Median survival time of treated mice/median survival time of controls x 100): P388/DX Johnson (iv, iv+1), at optimal dose
Procedure: as §1

LoVo/DX cells = assay: in vitro cytotoxicity (colony growth inhibition) against LoVo/DX cells; assay type: cell-based, human; details: for R.I. = Resistance Index = (IC50 LoVo/DX)/(IC50 LoVo): ratio of IC50 LoVo/DX to IC50 LoVo; for Cytotoxicity after 4h of treatment (IC50) LoVo/DX: concentration inhibiting by 50% colony growth, tested as hydrochlorides
Procedure: (§2) All compounds were tested as their hydrochlorides.

[3] = test system: LoVo (human colon adenocarcinoma); assay: in vitro cytotoxicity (colony growth inhibition) against LoVo cells; assay type: cell-based; details: concentration inhibiting by 50% colony growth, tested as hydrochlorides
Procedure: as §2

SMILES	MTD (in vivo [1])	%T/C (Median survival time of treated mice/median survival time of controls x 100) (P388)	MTD (in vivo [2])	%T/C (Median survival time of treated mice/median survival time of controls x 100) (P388/DX Johnson)	R.I. = Resistance Index = (IC50 LoVo/DX)/(IC50 LoVo) (LoVo/DX cells)	IC50 ([3]; Homo sapiens, LoVo, 4h of treatment, read-out: Cytotoxicity after 4h of treatment (IC50) LoVo)	Cytotoxicity after 4h of treatment (IC50) LoVo/DX (LoVo/DX cells)	Cytotoxicity after 4h of treatment (IC50) LoVo [3]	O.D. (Optimal dose: maximum tolerated dose (LD10)) (P388; P388 (iv, iv+1): tumor implanted intravenously, treatment begins one day after implantation)	O.D. (Optimal dose: maximum tolerated dose (LD10)) (P388/DX Johnson; P388/DX Johnson (iv, iv+1): tumor implanted intravenously, treatment begins one day after implantation)
COc1cccc2c1C(=O)c1c(O)c3c(c(O)c1C2=O)C[C@@](O)(C(=O)CO)C[C@@H]3O[C@H]1C[C@H](N)[C@H](O)[C@H](C)O1 [Doxorubicin, reference compound]	13 mg/kg	250%	13 mg/kg	100%	36	0.06 µg/mL (≈ 0.11 µM)	–	–	–	–
C[C@@H]1O[C@@H](O[C@H]2C[C@](O)(C(=O)CO)Cc3c2cc2c(c3O)C(=O)c3cccc(O)c3C2=O)C[C@H](N2CCOCC2)[C@@H]1O [Ia, 4-demethyl-6-deoxy-3′-deamino-3′-(4-morpholinyl) doxorubicin]	–	222%	–	183%	4.7	–	165.4 ng/mL	35.5 ng/mL	–	–
CC(=O)[C@]1(O)Cc2c(O)c3c(c(O)c2[C@@H](O[C@H]2C[C@H](N4CCOCC4)[C@H](O)[C@H](C)O2)C1)C(=O)c1c(N)cccc1C3=O [Ib, 4-demethoxy-4-amino-3′-deamino-3′-(4-morpholinyl)-daunorubicin]	–	156%	–	167%	2.1	–	28.5 ng/mL	13.7 ng/mL	–	–
CC(=O)[C@]1(O)Cc2c(O)c3c(c(O)c2[C@@H](O[C@H]2C[C@H](N4CCOCC4)[C@@H](O)[C@H](C)O2)C1)C(=O)c1c(N)cccc1C3=O [Ic, 4-demethoxy-4-amino-3′-deamino-3′-(4-morpholinyl)-4′-epi-daunorubicin]	–	–	20 mg/kg	195%	1.3	–	48.5 ng/mL	36 ng/mL	–	–
CC(=O)[C@]1(O)Cc2c(O)c3c(c(O)c2[C@@H](O[C@H]2C[C@H](N4CCOCC4)[C@@H](O)[C@H](C)O2)C1)C(=O)c1c(F)cccc1C3=O [Ie, 4-demethoxy-4-fluoro-3′-deamino-3′-(4-morpholinyl)-4′-epi-daunorubicin]	6.3 mg/kg	411%	6.3 mg/kg	244%	3.6	–	168 ng/mL	47 ng/mL	–	–
COC1CN(C2CC(OC3CC(O)(C(C)=O)Cc4c(O)c5c(c(O)c43)C(=O)c3ccccc3C5=O)OC(C)C2O)CCO1 (centres unmarked) [Il, 4-demethoxy-3′-deamino-3′-(2-methoxy-4-morpholinyl)-daunorubicin]	–	133%	–	161%	11.5	–	2.3 ng/mL	0.2 ng/mL	0.14 mg/kg	0.36 mg/kg
